Data on six compounds can be found in US20150239831A1, “INHIBITORS OF CENTRAL NERVOUS SYSTEM VASOACTIVE INHIBITORY PEPTIDE RECEPTOR 2” (The Trustees Of Columbia University In The City Of New York, priority 2012, published 2015).

“Also recorded” adds a separate entry of the source. Like-named read-outs stand apart in the source and are kept apart here.

The target in this test is T1, VIPR2 (Homo sapiens, UniProt P41587).
T1 sequence (P41587 24-438): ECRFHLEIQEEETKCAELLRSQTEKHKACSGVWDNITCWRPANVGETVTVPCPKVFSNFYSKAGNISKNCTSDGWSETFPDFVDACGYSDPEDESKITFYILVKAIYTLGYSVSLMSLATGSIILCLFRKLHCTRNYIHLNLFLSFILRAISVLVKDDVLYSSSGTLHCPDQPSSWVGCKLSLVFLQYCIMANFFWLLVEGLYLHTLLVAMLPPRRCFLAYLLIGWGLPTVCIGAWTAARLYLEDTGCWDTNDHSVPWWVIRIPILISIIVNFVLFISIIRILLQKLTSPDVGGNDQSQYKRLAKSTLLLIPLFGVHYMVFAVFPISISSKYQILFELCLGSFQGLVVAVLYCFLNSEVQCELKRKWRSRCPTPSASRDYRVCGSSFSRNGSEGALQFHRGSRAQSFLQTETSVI
The test is described as follows: BRET-based VIPR2 activation assay (CAMYEL cAMP sensor, CHO cells, VIP background). As to conditions: for VIPR2 inhibition in BRET-based assay (in words): FIG. 1C, FIG. 5. The class given is cell-based. The text has this:
In such a system, a detector cell is used which expresses both the VIPR2 receptor and “CAMYEL,” a YFP-Epac-RLuc8 BRET sensor construct. This construct includes Epac1, a guanine nucleotide exchange factor activated by direct binding of cAMP, fused with an enhanced YFP and Renilla luciferase 8 (Rluc8) allowing BRET upon cAMP-induced conformational changes (Jiang et al., 2007, J Biol Chem. 282:10576-10584). In response to elevated cAMP levels, there is a conformational change in Epac and therefore a change in the proximity of the fused chromophores, Rluc8 and YFP, resulting in measurable energy transfer. Coexpression of this BRET construct with VIPR2, optionally tagged at the N-terminus with a signal peptide and FLAG epitope (SF-VIPR2), for example in HEK293 cells, allows for detection of a VIPR2-specific response to cAMP. BRET readout may be calculated by quantifying the ratio of the light emitted by the acceptor, YFP (λ=525 nm), over the emission from the donor, RLuc8 (λ=485 nm). The proximity of the donor and acceptor, and therefore the BRET ratio, decreases in the presence of cAMP. In non-limiting specific embodiments, a stable cell line may be generated for this assay using the Flp-In T-Rex system in HEK293 cells. This system allows site-specific single copy integration of the gene of interest and control of expression levels using the Tet-repressor site making receptor expression tetracycline-inducible. For example, a CAMYEL and VIPR2 expressing line may be induced with 0.01 μg/ml tetracycline, then, 24 hours later cells may be collected and distributed into 96-well plates. After treatment with candidate inhibitor compound, for example at 5, 1 and 0.5 μM concentrations, cells may be incubated with the light emitting luciferin, coelenterazine H, for 5 min and incubated for 5 min with VIP at increasing concentrations, for example ranging from […] to 10 μM. The fluorescence and luminescence may then be quantified, for example using a PHERAstar (BMG) plate reader. […] Alternatively, analogous experiments may be performed using human cells harvested from a patient having a VIPR2 copy number variation, for example (but not by way of limitation) pluripotent stem cells prepared from such a patient and then transfected with a CAMYEL construct.
Numerous cellular assays were developed that were able to detect VIP responses absent of interference from non-specific vasopressin receptors using this CHO based system. VIPR2 is a Gs coupled receptor. Activation of VIPR2 by VIP leads to both an elevation in cAMP signaling and the recruitment of β-arrestin. A variety of combinations can be transiently transfect into these CHO cells for the assessment of cellular responses to VIP. For the BRET readout CHO cell lines expressing an YFP-Epac-RLuc8 (CAMYEL) BRET sensor were used to detect changes in cAMP. This construct includes Epac1, a guanine nucleotide exchange factor activated by direct binding of cAMP, fused to an enhanced YFP and RLuc8 allowing a change in BRET upon cAMP-induced conformational changes. The key for medium to high throughput screening assays is the use of stable cell lines allowing the continuous assaying of multiple compounds with the ability to generate large numbers of cells for rapid use. In these lines VIPR2 was expressed as one of the stable cell lines assays. This was introduced into the CHO-Flp-IN to allow the generation of isogenic stable cell lines expressing high levels of VIPR2 under control of the CMV promoter. This has been introduced into this line together with the CAMYEL construct previously described. This allows for detection of VIPR2-specific responses to cAMP. EYFP fluorescence and RLuc8 luminescence is quantified in the presence of 5 μM light-emitting luciferin, coelenterazine H, using a PHERAstar (BMG) plate reader. BRET is calculated by quantifying the ratio of the light emitted by the acceptor, YFP (λ=525 nm), over the emission from the donor, RLuc8 (λ=485 nm).
3. […]
(BRET reads energy transfer from a luciferase to a nearby fluorophore.)

The mark [1] stands for this setting: Table 2, read-out: BRET results (IC50).

Broadly, the IC50 is the point on the concentration scale where inhibition reaches its midpoint. `N#Cc1ccc(S(=O)(=O)NC[C@@H](O)C[C@@H](Cc2ccccc2)C(=O)N[C@H]2c3ccccc3C[C@H]2O)cc1` [C]: the 50% inhibitory concentration (IC50) (Table 1, read-out: IC50) is 1.33 µM and the IC50 under setting [1] came to 1.33 µM.

`CC(C)c1ccc(S(=O)(=O)NC[C@@H](O)C[C@@H](Cc2ccccc2)C(=O)N[C@H]2c3ccccc3C[C@H]2O)cc1` [Compound A10]: under setting [1], the IC50 came to 3.44 µM.

For `COc1ccc(S(=O)(=O)NC[C@@H](O)C[C@@H](Cc2ccccc2)C(=O)N[C@H]2c3ccccc3C[C@H]2O)cc1` [E], the IC50 turned out to be 1.02 µM (Table 1, read-out: IC50) and 1.02 µM under setting [1].

For the compound `O=C(N[C@H]1c2ccccc2C[C@H]1O)[C@H](Cc1ccccc1)C[C@H](O)CNS(=O)(=O)c1ccc(C(F)(F)F)cc1` [F], the “VIPR2 inhibition in BRET-based assay (in words)” value is recorded as “greater activity than Compound 1; also recorded: greater effect on V IPR2 inhibition than Compound 1”. Further, the IC50 under setting [1] came to 2.34 µM.

With `Cc1ccc(S(=O)(=O)NC[C@@H](O)C[C@@H](Cc2ccccc2)C(=O)N[C@H]2c3ccccc3C[C@H]2O)cc1` [I], the IC50 runs as follows: (Table 1, read-out: IC50) 1.18 µM; under setting [1], 1.98 µM.

On to `CC(=O)c1ccc(S(=O)(=O)NC[C@@H](O)C[C@@H](Cc2ccccc2)C(=O)N[C@H]2c3ccccc3C[C@H]2O)cc1` [K], for which the “VIPR2 inhibition in BRET-based assay (in words)” value was “significantly improved activity as an antagonist at VIPR2”. Further, the IC50 (Table 1, read-out: IC50) is 0.426 µM. Besides, the IC50 under setting [1] is 0.426 µM.
